Test results as given in the supplement of paper PMC8741786.

Experiments:
Assay in all cases: minimum inhibitory concentration (ETEST)
Neisseria bacilliformis = settings: isolate id (sample isolate): Co000780_5; population: general population; antibiotic use in previous 6 months: No
Method: (§1)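 Oropharyngeal Neisseria isolates from MSM and employees in Belgium were identified to species by MALDI-TOF MS. MICs of azithromycin, ceftriaxone and ciprofloxacin were determined by ETEST on GC agar after 24 h at 36.5 °C and 5-7% CO2, in mg/L. Values beyond the strip range are reported as >256 (azithromycin) or <0.016 (ceftriaxone); isolates that did not grow are NA.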

Neisseria cinerea = settings: population: general population, antibiotic use in previous 6 months: No
Method: as §1

Neisseria elongata = settings: population: general population, antibiotic use in previous 6 months: No
Method: as §1

Neisseria gonorrhoeae = settings: isolate id (sample isolate): 19113052_3; population: MSM; antibiotic use in previous 6 months: No
Method: as §1

Neisseria lactamica = settings: population: general population, antibiotic use in previous 6 months: No
Method: as §1

Neisseria mucosa/macacae = tested on: Neisseria mucosa/macacae
Method: as §1

[1] = tested on: Neisseria subflava/flavescens/perflava
Method: as §1

Measured: minimum inhibitory concentration

CC[C@H]1OC(=O)[C@H](C)[C@@H](O[C@H]2C[C@@](C)(OC)[C@@H](O)[C@H](C)O2)[C@H](C)[C@@H](O[C@@H]2O[C@H](C)C[C@H](N(C)C)[C@H]2O)[C@](C)(O)C[C@@H](C)CN(C)[C@H](C)[C@@H](O)[C@]1(C)O [azithromycin]
2 µg/mL: Neisseria bacilliformis | Neisseria cinerea; isolate id (sample isolate): Co000782_1 | Neisseria lactamica; isolate id (sample isolate): Co000761_1 | Neisseria mucosa/macacae; isolate id (sample isolate): 19051904_1, population: MSM, antibiotic use in previous 6 months: Yes | Neisseria mucosa/macacae; isolate id (sample isolate): Co000773_3, population: general population, antibiotic use in previous 6 months: No | Neisseria mucosa/macacae; isolate id (sample isolate): Co000779_1, population: general population, antibiotic use in previous 6 months: No | Neisseria mucosa/macacae; isolate id (sample isolate): Co000788_1, population: general population, antibiotic use in previous 6 months: No | [1]; isolate id (sample isolate): 19051904_2, population: MSM, antibiotic use in previous 6 months: Yes | [1]; isolate id (sample isolate): 19052394_1, population: MSM, antibiotic use in previous 6 months: Yes | [1]; isolate id (sample isolate): 19062994_1, population: MSM, antibiotic use in previous 6 months: Yes | [1]; isolate id (sample isolate): Co000761_2, population: general population, antibiotic use in previous 6 months: No | [1]; isolate id (sample isolate): Co000763_2, population: general population, antibiotic use in previous 6 months: No
1.5 µg/mL: Neisseria mucosa/macacae; isolate id (sample isolate): 19111422_4, population: MSM, antibiotic use in previous 6 months: No | [1]; isolate id (sample isolate): 19051904_3, population: MSM, antibiotic use in previous 6 months: Yes | [1]; isolate id (sample isolate): 19052394_1.1, population: MSM, antibiotic use in previous 6 months: Yes
> 256 µg/mL: [1]; isolate id (sample isolate): 19041762_1, population: MSM, antibiotic use in previous 6 months: Yes | [1]; isolate id (sample isolate): 19041762_1.1, population: MSM, antibiotic use in previous 6 months: Yes | [1]; isolate id (sample isolate): 19041780_1, population: MSM, antibiotic use in previous 6 months: Yes | [1]; isolate id (sample isolate): 19042150_3, population: MSM, antibiotic use in previous 6 months: Yes | [1]; isolate id (sample isolate): 19042756_1, population: MSM, antibiotic use in previous 6 months: Yes | [1]; isolate id (sample isolate): 19042756_2, population: MSM, antibiotic use in previous 6 months: Yes | [1]; isolate id (sample isolate): 19043201_2.1, population: MSM, antibiotic use in previous 6 months: No | [1]; isolate id (sample isolate): 19050514_1, population: MSM, antibiotic use in previous 6 months: Yes
24 µg/mL: Neisseria cinerea; isolate id (sample isolate): Co000776_4 | Neisseria mucosa/macacae; isolate id (sample isolate): 19081774_2, population: MSM, antibiotic use in previous 6 months: No
0.125 µg/mL: Neisseria gonorrhoeae
0.75 µg/mL: Neisseria elongata; isolate id (sample isolate): Co000780_1
6 µg/mL: Neisseria mucosa/macacae; isolate id (sample isolate): Co000771_4, population: general population, antibiotic use in previous 6 months: No | Neisseria mucosa/macacae; isolate id (sample isolate): Co000783_3, population: general population, antibiotic use in previous 6 months: No | [1]; isolate id (sample isolate): Co000761_5, population: general population, antibiotic use in previous 6 months: No | [1]; isolate id (sample isolate): Co000762_3, population: general population, antibiotic use in previous 6 months: No | [1]; isolate id (sample isolate): Co000766_1, population: general population, antibiotic use in previous 6 months: No
8 µg/mL: [1]; isolate id (sample isolate): 19050474_1, population: MSM, antibiotic use in previous 6 months: No | [1]; isolate id (sample isolate): 19060089_1, population: MSM, antibiotic use in previous 6 months: Yes | [1]; isolate id (sample isolate): Co000764_1, population: general population, antibiotic use in previous 6 months: No | [1]; isolate id (sample isolate): Co000764_2, population: general population, antibiotic use in previous 6 months: No
4 µg/mL: Neisseria mucosa/macacae; isolate id (sample isolate): 19052394_2, population: MSM, antibiotic use in previous 6 months: Yes | Neisseria mucosa/macacae; isolate id (sample isolate): Co000772_3, population: general population, antibiotic use in previous 6 months: No | Neisseria mucosa/macacae; isolate id (sample isolate): Co000787_3, population: general population, antibiotic use in previous 6 months: No | Neisseria mucosa/macacae; isolate id (sample isolate): Co000788_4, population: general population, antibiotic use in previous 6 months: No | [1]; isolate id (sample isolate): 19050949_2, population: MSM, antibiotic use in previous 6 months: No | [1]; isolate id (sample isolate): 19050949_2.1, population: MSM, antibiotic use in previous 6 months: No | [1]; isolate id (sample isolate): Co000761_3, population: general population, antibiotic use in previous 6 months: No | [1]; isolate id (sample isolate): Co000762_4, population: general population, antibiotic use in previous 6 months: No
32 µg/mL: Neisseria cinerea; isolate id (sample isolate): Co000776_5 | Neisseria mucosa/macacae; isolate id (sample isolate): Co000783_6, population: general population, antibiotic use in previous 6 months: No
1 µg/mL: Neisseria cinerea; isolate id (sample isolate): Co000769_3 | Neisseria lactamica; isolate id (sample isolate): Co000771_1 | Neisseria mucosa/macacae; isolate id (sample isolate): 19111422_7, population: MSM, antibiotic use in previous 6 months: No | [1]; isolate id (sample isolate): Co000766_3, population: general population, antibiotic use in previous 6 months: No
64 µg/mL: [1]; isolate id (sample isolate): 19042150_1, population: MSM, antibiotic use in previous 6 months: Yes
0.38 µg/mL: Neisseria elongata; isolate id (sample isolate): Co000783_4
0.5 µg/mL: Neisseria elongata; isolate id (sample isolate): Co000767_3
128 µg/mL: [1]; isolate id (sample isolate): 19043274_3, population: MSM, antibiotic use in previous 6 months: Yes
96 µg/mL: [1]; isolate id (sample isolate): 19043201_1.1, population: MSM, antibiotic use in previous 6 months: No | [1]; isolate id (sample isolate): 19043201_3, population: MSM, antibiotic use in previous 6 months: No
16 µg/mL: Neisseria mucosa/macacae; isolate id (sample isolate): 19062968_1, population: MSM, antibiotic use in previous 6 months: Yes
3 µg/mL: Neisseria mucosa/macacae; isolate id (sample isolate): 19041762_2, population: MSM, antibiotic use in previous 6 months: Yes | Neisseria mucosa/macacae; isolate id (sample isolate): Co000770_5, population: general population, antibiotic use in previous 6 months: No | [1]; isolate id (sample isolate): 19050949_1, population: MSM, antibiotic use in previous 6 months: No | [1]; isolate id (sample isolate): Co000761_6, population: general population, antibiotic use in previous 6 months: No | [1]; isolate id (sample isolate): Co000765_2, population: general population, antibiotic use in previous 6 months: No | [1]; isolate id (sample isolate): Co000765_3, population: general population, antibiotic use in previous 6 months: No | [1]; isolate id (sample isolate): Co000765_4, population: general population, antibiotic use in previous 6 months: No
